# Data taken from US20240245682A1, “ALPHA-V-BETA-8 INTEGRIN INHIBITORS AND USES THEREOF” (Pliant Therapeutics, Inc., priority 2022, published 2024).
# Key:
# Assay in all cases: AlphaScreen proximity-based integrin binding assay with TGF-b1 LAP
# Conditions in all cases: values given as ranges
# human integrin αVβ1 = human integrin αVβ1 (Homo sapiens, UniProt P05556+P06756)
# Procedure: (§1) The biochemical potency of the disclosed compounds was determined using the AlphaScreen® (Perkin Elmer, Waltham, MA) proximity-based assay as described previously (Ullman E F et al., Luminescent oxygen channeling immunoassay: Measurement of particle binding kinetics by chemiluminescence. Proc. Natl. Acad. Sci. USA, Vol. 91, pp. 5426-5430, June 1994, herein incorporated by reference in its entirety). To gauge the potency of inhibitors of binding to each of human integrins αVβ1, αVβ6, and αVβ8, inhibitor compounds were independently incubated with one of αVβ1, αVβ6, or αVβ8, together with TGF-b1 LAP and biotinylated anti-LAP antibody plus acceptor and donor beads, following the manufacture's recommendations. The donor beads were coated with streptavidin. […] All incubations occurred at room temperatures in 50 mM Tris-HCl, pH 7.5, 0.1% BSA supplemented with 1 mM each CaCl2 and MgCl2.
# (§2) The order of reagent addition was as follows:
# (§3) 1. αVβ1, αVβ6, or αVβ8 integrin, test inhibitor compound, LAP, biotinylated anti-LAP antibody and acceptor beads were all added together.
# (§4) 2. After 2 hours, donor beads were added. After another 30 minute incubation, samples were then read.
# (§5) Integrin binding was evaluated by exciting donor beads at 680 nm, and measuring the fluorescent signal produced, between 520-620 nm, using a Biotek Instruments (Winooski, VT, USA) SynergyNeo2 multimode plate reader. Compound potency was assessed by determining inhibitor concentrations required to reduce fluorescent light output by 50%. Data analysis for IC50 determinations was carried out by nonlinear four parameter logistic regression analysis using Dotmatics ELN Software (Core Informatics Inc., Branford, Ct). […] Comp #in the Table and Examples below refers to the compound of the corresponding Example number as described in the Synthetic Examples.
# human integrin αVβ6 = human integrin αVβ6 (Homo sapiens, UniProt P06756+P18564)
# Procedure: as §1, §2, §3, §4, §5
# human integrin αVβ8 = human integrin αVβ8 (Homo sapiens, UniProt P06756+P26012)
# Procedure: as §1, §2, §3, §4, §5
# Chain of human integrin αVβ1 (P06756 31-992 limits assumed): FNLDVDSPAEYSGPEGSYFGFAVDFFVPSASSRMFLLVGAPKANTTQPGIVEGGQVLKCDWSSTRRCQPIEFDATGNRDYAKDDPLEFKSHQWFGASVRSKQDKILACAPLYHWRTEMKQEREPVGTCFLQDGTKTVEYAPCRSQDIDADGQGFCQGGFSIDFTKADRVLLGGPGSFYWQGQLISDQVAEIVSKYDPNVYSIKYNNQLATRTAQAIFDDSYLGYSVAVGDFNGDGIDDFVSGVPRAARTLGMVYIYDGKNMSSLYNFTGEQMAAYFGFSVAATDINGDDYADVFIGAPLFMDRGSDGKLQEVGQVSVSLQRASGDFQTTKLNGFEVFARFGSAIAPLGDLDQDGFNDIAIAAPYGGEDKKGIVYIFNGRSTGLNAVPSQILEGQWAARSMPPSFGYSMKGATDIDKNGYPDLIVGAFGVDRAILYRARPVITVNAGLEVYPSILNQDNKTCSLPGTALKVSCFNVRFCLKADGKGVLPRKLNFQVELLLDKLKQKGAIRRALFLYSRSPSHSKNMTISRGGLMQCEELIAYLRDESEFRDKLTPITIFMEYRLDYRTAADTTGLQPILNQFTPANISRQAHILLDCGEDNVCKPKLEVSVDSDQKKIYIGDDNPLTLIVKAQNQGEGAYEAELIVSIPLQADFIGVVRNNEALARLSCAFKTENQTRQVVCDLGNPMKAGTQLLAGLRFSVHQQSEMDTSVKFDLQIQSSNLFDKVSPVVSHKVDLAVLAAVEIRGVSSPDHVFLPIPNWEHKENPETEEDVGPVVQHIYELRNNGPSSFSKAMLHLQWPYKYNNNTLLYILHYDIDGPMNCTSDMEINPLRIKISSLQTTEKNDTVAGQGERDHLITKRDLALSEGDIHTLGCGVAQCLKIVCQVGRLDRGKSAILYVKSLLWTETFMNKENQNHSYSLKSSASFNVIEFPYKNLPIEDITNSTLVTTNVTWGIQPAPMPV
# Chain of human integrin αVβ1 (P05556 21-728 limits assumed): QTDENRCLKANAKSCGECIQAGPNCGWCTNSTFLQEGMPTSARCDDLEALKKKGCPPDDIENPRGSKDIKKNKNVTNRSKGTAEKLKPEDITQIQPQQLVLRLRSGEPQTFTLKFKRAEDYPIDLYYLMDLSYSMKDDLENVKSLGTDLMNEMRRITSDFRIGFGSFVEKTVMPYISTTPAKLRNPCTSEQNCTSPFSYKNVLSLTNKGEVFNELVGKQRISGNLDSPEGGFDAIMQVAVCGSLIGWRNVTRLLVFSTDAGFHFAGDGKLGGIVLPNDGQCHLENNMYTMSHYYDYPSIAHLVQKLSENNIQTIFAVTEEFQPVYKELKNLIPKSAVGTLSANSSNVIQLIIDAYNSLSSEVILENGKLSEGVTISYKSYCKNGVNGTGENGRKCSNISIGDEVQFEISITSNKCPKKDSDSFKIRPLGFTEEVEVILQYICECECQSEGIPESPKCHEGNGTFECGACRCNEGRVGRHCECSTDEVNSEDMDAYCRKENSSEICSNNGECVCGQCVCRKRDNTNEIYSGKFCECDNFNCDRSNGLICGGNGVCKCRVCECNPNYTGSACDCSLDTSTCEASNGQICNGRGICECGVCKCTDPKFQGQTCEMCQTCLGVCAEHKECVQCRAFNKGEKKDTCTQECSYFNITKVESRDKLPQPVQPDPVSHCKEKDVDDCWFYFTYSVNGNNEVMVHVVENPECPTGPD
# Chain of human integrin αVβ8 (P06756 31-992 limits assumed): as the sequence (P06756 31-992 limits assumed) above
# Chain of human integrin αVβ8 (P26012 43-684 limits assumed): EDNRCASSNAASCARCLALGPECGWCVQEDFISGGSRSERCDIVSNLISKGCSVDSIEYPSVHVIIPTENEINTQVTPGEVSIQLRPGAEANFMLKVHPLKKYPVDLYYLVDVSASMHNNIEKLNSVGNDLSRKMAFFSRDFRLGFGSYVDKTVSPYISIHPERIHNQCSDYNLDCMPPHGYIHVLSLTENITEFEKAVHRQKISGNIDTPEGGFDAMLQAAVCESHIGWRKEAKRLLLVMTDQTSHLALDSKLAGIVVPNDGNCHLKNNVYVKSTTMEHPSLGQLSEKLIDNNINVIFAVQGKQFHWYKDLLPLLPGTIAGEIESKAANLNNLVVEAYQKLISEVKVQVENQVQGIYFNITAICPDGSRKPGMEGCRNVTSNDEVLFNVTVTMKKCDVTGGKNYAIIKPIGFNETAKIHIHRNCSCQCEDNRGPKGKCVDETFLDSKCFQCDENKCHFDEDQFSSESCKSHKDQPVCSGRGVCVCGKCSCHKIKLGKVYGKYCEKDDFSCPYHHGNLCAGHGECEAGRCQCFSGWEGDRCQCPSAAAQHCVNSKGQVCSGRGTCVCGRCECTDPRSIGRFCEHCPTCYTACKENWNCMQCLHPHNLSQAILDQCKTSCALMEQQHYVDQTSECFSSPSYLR
# Chain of human integrin αVβ6 (P06756 31-992 limits assumed): as the sequence (P06756 31-992 limits assumed) above
# Chain of human integrin αVβ6 (P18564 22-707 limits assumed): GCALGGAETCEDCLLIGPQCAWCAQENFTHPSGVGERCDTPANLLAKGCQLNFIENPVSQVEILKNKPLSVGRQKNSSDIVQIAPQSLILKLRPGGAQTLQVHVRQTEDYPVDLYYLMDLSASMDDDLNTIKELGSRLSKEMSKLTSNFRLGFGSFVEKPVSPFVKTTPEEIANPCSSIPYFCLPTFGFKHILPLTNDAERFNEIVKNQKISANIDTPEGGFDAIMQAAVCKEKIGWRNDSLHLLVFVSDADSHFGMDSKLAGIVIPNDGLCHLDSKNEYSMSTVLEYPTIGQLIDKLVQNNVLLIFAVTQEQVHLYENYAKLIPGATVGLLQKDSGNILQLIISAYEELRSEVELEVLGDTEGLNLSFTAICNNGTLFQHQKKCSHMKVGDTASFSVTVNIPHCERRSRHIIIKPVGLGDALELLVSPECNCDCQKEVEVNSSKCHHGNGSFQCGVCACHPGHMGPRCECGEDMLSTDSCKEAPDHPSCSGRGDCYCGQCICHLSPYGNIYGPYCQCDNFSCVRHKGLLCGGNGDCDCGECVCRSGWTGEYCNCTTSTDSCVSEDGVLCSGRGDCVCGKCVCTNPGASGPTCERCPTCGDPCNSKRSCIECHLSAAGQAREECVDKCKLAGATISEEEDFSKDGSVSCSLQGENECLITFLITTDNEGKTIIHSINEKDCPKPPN
IC50 (human integrin αVβ1),IC50 (human integrin αVβ6),IC50 (human integrin αVβ8),SMILES
50 to 150 nM,≥ 500 nM,< 50 nM,"COc1cccc(C2(C(=O)N[C@@H](CCOCCCCc3ccc4c(n3)NCCC4)C(=O)O)CC2)n1 [Compound 18, N-(1-(6-methoxypyridin-2-yl)cyclopropane-1-carbonyl)-O-(4-(5,6,7,8-tetrahydro-1,8-naphthyridin-2-yl)butyl)-L-homoserine]"
< 50 nM,≥ 500 nM,< 50 nM,"O=C(O)[C@H](CCOCCCCc1ccc2c(n1)NCCC2)NC(=O)C1(c2nccnc2C(F)(F)F)CC1 [Compound 67, O-(4-(5,6,7,8-tetrahydro-1,8-naphthyridin-2-yl)butyl)-N-(1-(3-(trifluoromethyl)pyrazin-2-yl)cyclopropane-1-carbonyl)-L-homoserine]"
150 to 250 nM,≥ 500 nM,50 to 150 nM,"O=C(O)[C@H](CCOCCCCc1ccc2c(n1)NCCC2)NC(=O)C1(c2c(Cl)nc[nH]c2=O)CC1 [Compound 63, N-(1-(4-chloro-6-oxo-1,6-dihydropyrimidin-5-yl)cyclopropane-1-carbonyl)-O-(4-(5,6,7,8-tetrahydro-1,8-naphthyridin-2-yl)butyl)-L-homoserine]"
< 50 nM,> 500 nM,< 50 nM,"O=C(O)[C@H](CCOCCCCc1ccc2c(n1)NCCC2)NC(=O)C1(n2c(Br)cccc2=O)CC1 [Compound 94, N-(1-(6-bromo-2-oxopyridin-1(2H)-yl)cyclopropane-1-carbonyl)-O-(4-(5,6,7,8-tetrahydro-1,8-naphthyridin-2-yl)butyl)-L-homoserine]"
< 50 nM,≥ 500 nM,< 50 nM,"Cc1nc(C)c(C2(C(=O)N[C@@H](CCOCCCCc3ccc4c(n3)NCCC4)C(=O)O)CC2)c(Cl)n1 [Compound 60, N-(1-(4-chloro-2,6-dimethylpyrimidin-5-yl)cyclopropane-1-carbonyl)-O-(4-(5,6,7,8-tetrahydro-1,8-naphthyridin-2-yl)butyl)-L-homoserine]"
< 50 nM,≥ 500 nM,< 50 nM,"COc1cncc(Cl)c1C1(C(=O)N[C@@H](CCOCCCCc2ccc3c(n2)NCCC3)C(=O)O)CC1 [Compound 34, N-(1-(3-chloro-5-methoxypyridin-4-yl)cyclopropane-1-carbonyl)-O-(4-(5,6,7,8-tetrahydro-1,8-naphthyridin-2-yl)butyl)-L-homoserine]"
< 50 nM,≥ 500 nM,< 50 nM,"Cn1cc(C#N)c(C2(C(=O)N[C@@H](CCOCCCCc3ccc4c(n3)NCCC4)C(=O)O)CC2)n1 [Compound 75, N-(1-(4-cyano-1-methyl-1H-pyrazol-3-yl)cyclopropane-1-carbonyl)-O-(4-(5,6,7,8-tetrahydro-1,8-naphthyridin-2-yl)butyl)-L-homoserine]"
< 50 nM,250 to 500 nM,< 50 nM,"COc1ccc(Cl)c(C2(C(=O)N[C@@H](CCOCCCCc3ccc4c(n3)NCCC4)C(=O)O)CC2)n1 [Compound 26, N-(1-(3-chloro-6-methoxypyridin-2-yl)cyclopropane-1-carbonyl)-O-(4-(5,6,7,8-tetrahydro-1,8-naphthyridin-2-yl)butyl)-L-homoserine]"
< 50 nM,> 500 nM,< 50 nM,"[2H]C1([2H])C([2H])([2H])C1(C(=O)N[C@@H](CCOCCCCc1ccc2c(n1)NCCC2)C(=O)O)c1c(C)ncnc1Cl [Compound 104, N-(1-(4-chloro-6-methylpyrimidin-5-yl)cyclopropane-1-carbonyl-2,2,3,3-d4)-O-(4-(5,6,7,8-tetrahydro-1,8-naphthyridin-2-yl)butyl)-L-homoserine]"
< 50 nM,≥ 500 nM,< 50 nM,"O=C(O)[C@H](CCOCCCCc1ccc2c(n1)NCCC2)NC(=O)C1(c2ncncc2Cl)CC1 [Compound 49, N-(1-(5-chloropyrimidin-4-yl)cyclopropane-1-carbonyl)-O-(4-(5,6,7,8-tetrahydro-1,8-naphthyridin-2-yl)butyl)-L-homoserine]"
50 to 150 nM,> 500 nM,50 to 150 nM,"NC(=O)c1cccc(F)c1C1(C(=O)N[C@@H](CCOCCCCc2ccc3c(n2)NCCC3)C(=O)O)CC1 [Compound 95, N-(1-(2-carbamoyl-6-fluorophenyl)cyclopropane-1-carbonyl)-O-(4-(5,6,7,8-tetrahydro-1,8-naphthyridin-2-yl)butyl)-L-homoserine]"
50 to 150 nM,≥ 500 nM,< 50 nM,"Cc1cccnc1C1(C(=O)N[C@@H](CCOCCCCc2ccc3c(n2)NCCC3)C(=O)O)CC1 [Compound 29, N-(1-(3-methylpyridin-2-yl)cyclopropane-1-carbonyl)-O-(4-(5,6,7,8-tetrahydro-1,8-naphthyridin-2-yl)butyl)-L-homoserine]"
< 50 nM,> 500 nM,< 50 nM,"O=C(O)[C@H](CCOCCCCc1ccc2c(n1)NCCC2)NC(=O)C1(C(F)(F)F)CCN(CC(F)(F)F)CC1 [Compound 96, O-(4-(5,6,7,8-tetrahydro-1,8-naphthyridin-2-yl)butyl)-N-(1-(2,2,2-trifluoroethyl)-4-(trifluoromethyl)piperidine-4-carbonyl)-L-homoserine]"
< 50 nM,≥ 500 nM,50 to 150 nM,"CC(C)(C(=O)N[C@@H](CCOCCCCc1ccc2c(n1)NCCC2)C(=O)O)c1c(F)cccc1OC(F)F [Compound 5, N-(2-(2-(difluoromethoxy)-6-fluorophenyl)-2-methylpropanoyl)-O-(4-(5,6,7,8-tetrahydro-1,8-naphthyridin-2-yl)butyl)-L-homoserine]"
< 50 nM,≥ 500 nM,< 50 nM,"O=C(O)[C@H](CCOCCCCc1ccc2c(n1)NCCC2)NC(=O)C1(c2cn[nH]c2Cl)CC1 [Compound 74, N-(1-(5-chloro-1H-pyrazol-4-yl)cyclopropane-1-carbonyl)-O-(4-(5,6,7,8-tetrahydro-1,8-naphthyridin-2-yl)butyl)-L-homoserine]"
< 50 nM,≥ 500 nM,< 50 nM,"O=C(O)[C@H](CCOCCCCc1ccc2c(n1)NCCC2)NC(=O)C1(c2c(Cl)cccc2Cl)CC1 [Compound 7, N-(1-(2,6-dichlorophenyl)cyclopropane-1-carbonyl)-O-(4-(5,6,7,8-tetrahydro-1,8-naphthyridin-2-yl)butyl)-L-homoserine]"
50 to 150 nM,≥ 500 nM,50 to 150 nM,"COc1cccnc1C1(C(=O)N[C@@H](CCOCCCCc2ccc3c(n2)NCCC3)C(=O)O)CC1 [Compound 30, N-(1-(3-methoxypyridin-2-yl)cyclopropane-1-carbonyl)-O-(4-(5,6,7,8-tetrahydro-1,8-naphthyridin-2-yl)butyl)-L-homoserine]"
< 50 nM,≥ 500 nM,< 50 nM,"O=C(O)[C@H](CCOCCCCc1ccc2c(n1)NCCC2)NC(=O)C1(c2[nH]c(=O)ccc2Cl)CC1 [Compound 66, N-(1-(3-chloro-6-oxo-1,6-dihydropyridin-2-yl)cyclopropane-1-carbonyl)-O-(4-(5,6,7,8-tetrahydro-1,8-naphthyridin-2-yl)butyl)-L-homoserine]"
< 50 nM,≥ 500 nM,< 50 nM,"Cc1ncc(Cl)c(C2(C(=O)N[C@@H](CCOCCCCc3ccc4c(n3)NCCC4)C(=O)O)CC2)n1 [Compound 73, N-(1-(5-chloro-2-methylpyrimidin-4-yl)cyclopropane-1-carbonyl)-O-(4-(5,6,7,8-tetrahydro-1,8-naphthyridin-2-yl)butyl)-L-homoserine]"
< 50 nM,150 to 250 nM,< 50 nM,"O=C(O)[C@H](CCOCCCCc1ccc2c(n1)NCCC2)NC(=O)C1(c2cc(F)cnc2F)CC1 [Compound 21, N-(1-(2,5-difluoropyridin-3-yl)cyclopropane-1-carbonyl)-O-(4-(5,6,7,8-tetrahydro-1,8-naphthyridin-2-yl)butyl)-L-homoserine]"
< 50 nM,≥ 500 nM,50 to 150 nM,"COc1nccnc1C1(C(=O)N[C@@H](CCOCCCCc2ccc3c(n2)NCCC3)C(=O)O)CC1 [Compound 50, N-(1-(3-methoxypyrazin-2-yl)cyclopropane-1-carbonyl)-O-(4-(5,6,7,8-tetrahydro-1,8-naphthyridin-2-yl)butyl)-L-homoserine]"
< 50 nM,≥ 500 nM,< 50 nM,"O=C(O)[C@H](CCOCCCCc1ccc2c(n1)NCCC2)NC(=O)C1(c2ncccc2C(F)(F)F)CC1 [Compound 25, O-(4-(5,6,7,8-tetrahydro-1,8-naphthyridin-2-yl)butyl)-N-(1-(3-(trifluoromethyl)pyridin-2-yl)cyclopropane-1-carbonyl)-L-homoserine]"
< 50 nM,≥ 500 nM,< 50 nM,"COc1ncc(F)cc1C1(C(=O)N[C@@H](CCOCCCCc2ccc3c(n2)NCCC3)C(=O)O)CC1 [Compound 33, N-(1-(5-fluoro-2-methoxypyridin-3-yl)cyclopropane-1-carbonyl)-O-(4-(5,6,7,8-tetrahydro-1,8-naphthyridin-2-yl)butyl)-L-homoserine]"
